The source of these data is ChEMBL document CHEMBL3991601, “The target landscape of clinical kinase drugs” (Science, 2017).

The source made the active and inactive calls. A value given as a limit tells only on which side of the number the result lay.

In assay [1] the target is T1, ATP-dependent RNA helicase DDX42 (Homo sapiens, UniProt Q86XP3).
T1 sequence (Q86XP3 whole entry): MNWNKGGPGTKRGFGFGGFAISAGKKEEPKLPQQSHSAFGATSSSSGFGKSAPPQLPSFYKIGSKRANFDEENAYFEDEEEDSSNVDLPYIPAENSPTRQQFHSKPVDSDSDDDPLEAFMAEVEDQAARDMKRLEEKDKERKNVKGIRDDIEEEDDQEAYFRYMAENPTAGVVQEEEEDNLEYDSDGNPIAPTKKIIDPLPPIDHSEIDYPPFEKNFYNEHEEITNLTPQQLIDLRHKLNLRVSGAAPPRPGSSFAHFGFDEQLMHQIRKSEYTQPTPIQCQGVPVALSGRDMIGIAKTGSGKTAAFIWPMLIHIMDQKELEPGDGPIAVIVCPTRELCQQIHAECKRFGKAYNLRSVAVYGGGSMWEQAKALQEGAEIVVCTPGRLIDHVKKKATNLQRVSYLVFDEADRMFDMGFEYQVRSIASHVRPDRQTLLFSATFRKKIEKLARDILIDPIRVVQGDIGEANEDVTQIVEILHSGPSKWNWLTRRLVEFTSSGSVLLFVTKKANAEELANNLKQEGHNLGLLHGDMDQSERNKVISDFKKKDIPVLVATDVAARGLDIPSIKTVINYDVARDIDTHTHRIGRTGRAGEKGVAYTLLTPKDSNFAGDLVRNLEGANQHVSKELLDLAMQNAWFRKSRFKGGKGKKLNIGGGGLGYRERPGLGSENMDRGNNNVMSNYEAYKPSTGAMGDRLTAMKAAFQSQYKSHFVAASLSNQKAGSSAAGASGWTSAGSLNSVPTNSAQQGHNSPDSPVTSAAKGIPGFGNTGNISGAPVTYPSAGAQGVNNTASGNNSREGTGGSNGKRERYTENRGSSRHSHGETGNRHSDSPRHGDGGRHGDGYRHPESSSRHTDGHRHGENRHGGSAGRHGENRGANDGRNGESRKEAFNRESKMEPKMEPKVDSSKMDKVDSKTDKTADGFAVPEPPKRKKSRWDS

For assay [2], the target named is Mitogen-activated protein kinase kinase kinase 4 (Homo sapiens, UniProt Q9Y6R4).
The target in assay [3] is T2, STE20-related kinase adapter protein alpha (Homo sapiens, UniProt Q7RTN6).
T2 sequence (Q7RTN6 whole entry): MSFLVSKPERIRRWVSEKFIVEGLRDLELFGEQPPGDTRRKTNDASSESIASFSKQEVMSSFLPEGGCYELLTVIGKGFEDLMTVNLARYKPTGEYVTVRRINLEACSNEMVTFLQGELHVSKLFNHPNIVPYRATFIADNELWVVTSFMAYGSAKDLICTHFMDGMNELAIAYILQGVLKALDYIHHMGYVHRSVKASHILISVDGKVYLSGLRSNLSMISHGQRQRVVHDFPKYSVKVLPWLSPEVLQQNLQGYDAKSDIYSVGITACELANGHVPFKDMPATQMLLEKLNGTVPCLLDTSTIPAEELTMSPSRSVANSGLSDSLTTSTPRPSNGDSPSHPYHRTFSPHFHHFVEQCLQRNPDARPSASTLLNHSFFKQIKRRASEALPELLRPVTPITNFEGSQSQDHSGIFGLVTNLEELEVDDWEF

In assay [4] the target is Wee1-like protein kinase (Homo sapiens, UniProt P30291).
Assay [5] concerns the target Mitogen-activated protein kinase 3 (Homo sapiens, UniProt P27361).
Assay [6] addresses T3, Calcium/calmodulin-dependent protein kinase type IV (Homo sapiens, UniProt Q16566).
T3 sequence (Q16566 whole entry): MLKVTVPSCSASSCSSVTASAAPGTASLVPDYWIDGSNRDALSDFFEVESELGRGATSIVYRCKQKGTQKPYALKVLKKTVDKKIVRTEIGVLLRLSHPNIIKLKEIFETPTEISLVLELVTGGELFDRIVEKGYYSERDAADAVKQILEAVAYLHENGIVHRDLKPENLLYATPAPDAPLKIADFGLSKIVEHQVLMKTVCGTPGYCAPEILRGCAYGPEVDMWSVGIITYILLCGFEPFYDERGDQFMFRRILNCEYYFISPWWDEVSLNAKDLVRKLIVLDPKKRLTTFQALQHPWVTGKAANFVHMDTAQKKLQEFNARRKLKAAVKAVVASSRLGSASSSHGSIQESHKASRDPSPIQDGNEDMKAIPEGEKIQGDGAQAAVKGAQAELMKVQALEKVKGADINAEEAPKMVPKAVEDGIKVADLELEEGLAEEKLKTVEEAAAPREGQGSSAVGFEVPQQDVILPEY
Note: in the data inactive means no Kd found up to 30 µM.

Chain of Mitogen-activated protein kinase kinase kinase 4 (Q9Y6R4 whole entry): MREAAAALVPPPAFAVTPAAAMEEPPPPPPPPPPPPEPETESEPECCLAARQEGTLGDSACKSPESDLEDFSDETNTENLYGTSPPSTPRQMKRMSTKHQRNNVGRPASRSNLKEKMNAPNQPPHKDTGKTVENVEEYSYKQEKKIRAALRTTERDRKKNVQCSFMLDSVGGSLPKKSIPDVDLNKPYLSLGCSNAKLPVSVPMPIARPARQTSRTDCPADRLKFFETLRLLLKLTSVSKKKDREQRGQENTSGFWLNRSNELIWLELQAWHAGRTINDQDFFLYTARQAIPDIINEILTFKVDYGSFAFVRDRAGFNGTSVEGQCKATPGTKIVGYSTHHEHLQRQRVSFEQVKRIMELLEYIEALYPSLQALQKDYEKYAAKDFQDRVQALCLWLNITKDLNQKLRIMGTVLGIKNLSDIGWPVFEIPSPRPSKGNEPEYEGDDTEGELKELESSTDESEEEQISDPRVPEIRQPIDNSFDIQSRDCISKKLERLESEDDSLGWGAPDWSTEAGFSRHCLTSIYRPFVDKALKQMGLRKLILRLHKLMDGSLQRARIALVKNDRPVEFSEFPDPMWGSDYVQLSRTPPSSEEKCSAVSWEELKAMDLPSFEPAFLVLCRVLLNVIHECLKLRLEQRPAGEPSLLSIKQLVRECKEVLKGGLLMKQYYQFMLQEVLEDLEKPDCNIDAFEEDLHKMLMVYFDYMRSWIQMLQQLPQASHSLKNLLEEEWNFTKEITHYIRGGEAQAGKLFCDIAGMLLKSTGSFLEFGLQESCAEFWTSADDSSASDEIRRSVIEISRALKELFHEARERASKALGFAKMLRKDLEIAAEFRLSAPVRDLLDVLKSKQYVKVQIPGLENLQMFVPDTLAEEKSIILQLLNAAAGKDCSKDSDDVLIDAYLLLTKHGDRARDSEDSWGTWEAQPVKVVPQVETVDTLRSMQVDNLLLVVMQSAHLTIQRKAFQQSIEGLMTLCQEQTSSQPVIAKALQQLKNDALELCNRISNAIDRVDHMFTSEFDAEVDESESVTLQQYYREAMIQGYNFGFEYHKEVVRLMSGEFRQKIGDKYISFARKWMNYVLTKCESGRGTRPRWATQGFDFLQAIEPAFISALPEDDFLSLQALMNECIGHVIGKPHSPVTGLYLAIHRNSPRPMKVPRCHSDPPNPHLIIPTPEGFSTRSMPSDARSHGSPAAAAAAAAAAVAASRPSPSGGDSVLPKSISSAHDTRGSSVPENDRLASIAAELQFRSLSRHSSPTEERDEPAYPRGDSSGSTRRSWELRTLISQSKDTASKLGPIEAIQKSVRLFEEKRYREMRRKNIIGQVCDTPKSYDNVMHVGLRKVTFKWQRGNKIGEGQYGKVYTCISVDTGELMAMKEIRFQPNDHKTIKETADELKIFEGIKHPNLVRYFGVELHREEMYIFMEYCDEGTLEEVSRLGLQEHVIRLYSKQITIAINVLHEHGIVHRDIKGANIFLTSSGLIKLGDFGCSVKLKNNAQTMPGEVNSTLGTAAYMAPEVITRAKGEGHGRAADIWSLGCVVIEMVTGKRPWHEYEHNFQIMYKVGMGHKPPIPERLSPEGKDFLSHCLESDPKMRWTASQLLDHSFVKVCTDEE
Chain of Mitogen-activated protein kinase 3 (P27361 whole entry): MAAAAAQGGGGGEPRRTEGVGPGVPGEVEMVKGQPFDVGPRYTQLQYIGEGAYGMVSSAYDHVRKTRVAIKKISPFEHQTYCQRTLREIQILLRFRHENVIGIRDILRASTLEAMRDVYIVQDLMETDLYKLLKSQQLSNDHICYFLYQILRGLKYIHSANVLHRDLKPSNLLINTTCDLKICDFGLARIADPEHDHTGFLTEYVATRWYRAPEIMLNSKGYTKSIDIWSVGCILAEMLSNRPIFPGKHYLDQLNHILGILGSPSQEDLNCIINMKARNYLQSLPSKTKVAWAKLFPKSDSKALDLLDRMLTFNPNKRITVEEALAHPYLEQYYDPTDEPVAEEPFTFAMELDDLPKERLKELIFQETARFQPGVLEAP
Chain of Wee1-like protein kinase (P30291 whole entry): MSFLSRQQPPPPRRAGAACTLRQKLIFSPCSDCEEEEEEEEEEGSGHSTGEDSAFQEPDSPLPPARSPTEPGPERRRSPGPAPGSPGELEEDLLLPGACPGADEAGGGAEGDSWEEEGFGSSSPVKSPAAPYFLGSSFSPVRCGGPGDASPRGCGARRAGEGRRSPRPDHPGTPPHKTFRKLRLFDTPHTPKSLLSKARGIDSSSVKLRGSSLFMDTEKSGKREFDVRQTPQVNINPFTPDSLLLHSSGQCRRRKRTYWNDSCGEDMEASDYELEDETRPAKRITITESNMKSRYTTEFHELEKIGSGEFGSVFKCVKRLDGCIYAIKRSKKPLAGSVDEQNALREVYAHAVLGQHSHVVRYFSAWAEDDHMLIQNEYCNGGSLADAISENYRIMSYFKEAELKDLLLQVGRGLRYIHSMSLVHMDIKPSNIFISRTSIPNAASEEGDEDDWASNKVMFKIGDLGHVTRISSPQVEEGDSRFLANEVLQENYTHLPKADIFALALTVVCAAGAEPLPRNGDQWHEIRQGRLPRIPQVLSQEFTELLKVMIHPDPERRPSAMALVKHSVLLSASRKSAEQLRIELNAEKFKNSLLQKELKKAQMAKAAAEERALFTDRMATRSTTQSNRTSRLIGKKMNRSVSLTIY

Consider `CNC(=O)CN1CCC(Oc2cc3c(Nc4cccc(Cl)c4F)ncnc3cc2OC)CC1` [SAPITINIB], for which the Kd in assay [1], in assay [2], in assay [3], in assay [4], in assay [5] and in assay [6] was > 30 µM (inactive) in each case.

On to `Cc1cc([C@@H](C)Nc2ccccc2C(=O)O)c2nc(N3CCOCC3)cc(=O)n2c1` [AZD-6482], for which the Kd in assay [1], in assay [2], in assay [3], in assay [4], in assay [5] and in assay [6] was > 30 µM (inactive) throughout.

Turning to `CCN1CCN(Cc2ccc(-c3cc4c(N[C@H](C)c5ccccc5)ncnc4[nH]3)cc2)CC1` [AEE-788], the Kd in assay [1] was > 30 µM (inactive); in assay [2] it was 2.19 µM (active); in assay [3], > 30 µM (inactive); in assay [4], 65.2 µM (active); in assay [5], > 30 µM (inactive); in assay [6], > 30 µM (inactive).

Take `CC(=O)Nc1cccc(-n2c(=O)n(C3CC3)c(=O)c3c(Nc4ccc(I)cc4F)n(C)c(=O)c(C)c32)c1` [TRAMETINIB]: the Kd in assay [1], in assay [2], in assay [3], in assay [4], in assay [5] and in assay [6] was > 30 µM (inactive) in each case.

As to `COCCNCc1ccc(-c2cc3nccc(Oc4ccc(NC(=S)NC(=O)Cc5ccc(F)cc5)cc4F)c3s2)nc1` [GLESATINIB], the Kd in assay [1], in assay [2], in assay [3], in assay [4], in assay [5] and in assay [6] was > 30 µM (inactive) throughout.

On to `CNS(=O)(=O)Nc1nccc(Cc2c(C)c3ccc(Oc4ncccn4)cc3oc2=O)c1F` [AVUTOMETINIB], for which the Kd in assay [1], in assay [2], in assay [3], in assay [4], in assay [5] and in assay [6] was > 30 µM (inactive) in each case.

What is called Kd is the equilibrium constant for the complex coming apart.
